Measurements as given in patent US20120189563A1, “ORAL COMPOSITION FOR ALLEVIATING ULTRAVIOLET IRRADIATION-INDUCED DAMAGE” (Shiseido Company, Ltd., priority 2009, published 2012).
Where two headings read alike, the source gives them in different places.

Assays:
[1] = tested on: Male hairless mice (Hos: HR-1)
From the text: (§1) Male hairless mice (Hos: HR-1, six-week old, Hoshino Laboratory Animals, Inc.) were employed and subjected to a partly modified method by Schwarz et al. (Haratake A. et al. J. Invest. Dermatol. 108:769-775, 1997.) in accordance with the repetitive UV-B irradiation method (Naganuma M. et al. J. Dermatol. Sci. 25:29-35, 2001. Schwartz E. J. Invest. Dermatol. 91:158-161, 1988.) whereby forming wrinkles. Thus, the dorsal region was irradiated with UV-B (light source: Toshiba FL-20 SE fluorescent lamp manufactured by Toshiba Electric) three times a week for 12 weeks. […] The total irradiation dose was 4.482 J/cm^2. The UV dose measured using UVRADIOMETER (UVR-305/365D (II), Topcon Corporation) was employed as a readout. During the UV-B irradiation, 10 mM D-methionine was given via a water supplier bottle. As a control, a tap water was given in the same manner. The water supplier bottle was exchanged once a week.
After the end of the UV irradiation, the skin thickness was measured using a thickness gauge (Mitsutoyo Corporation, PK-1012SU). The measured value of the skin thickness was designated as “skin thickness×2”, since the measurement was conducted by pinching the skin with the thickness gauge.

[2] = tested on: human neonatal dermal fibroblast (Cryo NHDF-Neo); experiment: cells; settings: for effect of pre-irradiation addition on viable cells and cell death (in words): pre-irradiation addition 0.001 to 100 μM, UV-A 9 J/cm^2
Procedure: The ultraviolet irradiation after switching into a medium added with 0.1 μM (micro-molar) D-proline was employed as a positive control, while the ultraviolet irradiation to the medium still being free of such an added amino acid was employed as a negative control.
(degrees Celsius) for 40 hours.

[3] = tested on: Male hairless mice (Hos: HR-1); settings: Example 3, 10 mM in drinking water; for effect on UV-B-induced wrinkling (in words): P=0.55% in Mann-Whitney U test; for number of animals of each wrinkle score after the UV-B irradiation: UV(+) control: one scored 5, two 6, two 7, three 8
From the text: as §1
After the irradiation to the mice described above, the dorsal regions of the mice were photographed, and a partly modified method by Bissett et al. (Bissett D L. et al. Photochemistry and Photobiology 46:367-378, 1987.) was employed to evaluate the degree of wrinkling in accordance with the criteria indicated in Table 1 below. The wrinkle evaluation was performed separately by four observers, who thereafter consulted together to determine a score about the wrinkle grade (hereinafter, simply referred to as “score”).
During the UV-B irradiation, 10 mM L- or D-methionine was given via a water supplier bottle. The UV irradiation and the wrinkling determination were conducted by the methods described in Example 2.

[4] = tested on: human neonatal dermal fibroblast (Cryo NHDF-Neo); experiment: Ultraviolet irradiation-induced damage test in cultured cell, post-irradiation addition (Alamar Blue); settings: UV-A 8 J/cm^2
Procedure: The cell employed was a commercially available human neonatal dermal fibroblast (Cryo NHDF-Neo, Sanko-Junyaku Co., Ltd.). This cell was inoculated at 2×10^5 cells/mL to a commercially available culture dish of 35 mm in diameter (BD FALCON 353001, Becton Dickinson Japan), where it was cultured in a commercially available cell culture medium (D-MEM (1 g/L glucose, Wako Pure Chemical Industries, Ltd.) supplemented with 10% fetal bovine serum and 1% antibiotic (15240-062, GIBCO) (hereinafter, referred to as “ordinary medium”). This cell was cultured for about 24 hours in a 5% CO2 and saturated water vapor atmosphere at 37° C. (degrees Celsius).
Thereafter, the culture medium for culturing the cell described above was switched to 1 mL of a BSO medium supplemented with a glutathione biosynthesis inhibitor BSO (L-buthionine-(S,R)-sulfoximine, Wako Pure Chemical Industries, Ltd.) at 1×10^−3%, where the culture was conducted for about 24 hours in a 5% CO2 and saturated water vapor atmosphere at 37° C. […] The BSO medium described above was prepared by a 200-fold dilution of a stock solution containing 0.2% BSO dissolved in ethyl alcohol with the ordinary medium described above.
Ferric chloride (II) was dissolved in a distilled water at 2×10^−3%, and the resultant solution was subjected to a 200-fold dilution (final concentration: 1×10^−5%) with a phosphate buffer solution PBS (+) containing calcium ion and magnesium ion to obtain a medium (hereinafter, referred to as “UV irradiation medium”), which was warmed preliminarily to 37° C. before use.
Before UV-A irradiation, the culture medium was replaced with 1 mL of the UV irradiation medium described above. […] The UV dose was measured using UV RADIOMETER UVR-3036/S (Topcon Corporation).
After the ultraviolet irradiation, the medium was switched back to the ordinary medium described above, and the culture was conducted in a 5% CO2 and saturated water vapor atmosphere at 37° C.
Thereafter, the culture medium was supplemented with Alamar Blue (trade mark, Invitrogen) at a final concentration of 10%, and its supernatant was determined for the fluorescent intensity three hours later with an excitation wavelength of 544 nm and a fluorescent wavelength of 590 nm as described by Ahmed S. A. et al. (J. Immunol. Method. 170, 211-224 (1994)) and in accordance with the manufacture's instruction.

[5] = tested on: Male hairless mice (Hos: HR-1); settings: Example 2, 10 mM in drinking water
From the text: as §1
After the irradiation to the mice described above, the dorsal regions of the mice were photographed, and a partly modified method by Bissett et al. (Bissett D L. et al. Photochemistry and Photobiology 46:367-378, 1987.) was employed to evaluate the degree of wrinkling in accordance with the criteria indicated in Table 1 below. […]

[6] = Homo sapiens, Fibroblast, light or radiation study, read-out: percentage of the viable cell

| Structure (SMILES) | measured value of the skin thickness (skin thickness×2) ([1]; 10 mM in drinking water during 12 weeks UV-B, total 4.482 J/cm^2, UV(−)/H20 0.81 mm, UV(+)/H20 1.25 mm) [mm] | effect on UV-B-induced skin thickening (in words) ([1]; 10 mM in drinking water, UV-B total 4.482 J/cm^2, Bonferroni/Dunn test) | viability at 0.01 µM [2, 6] [%] | viability at 0.1 µM [2, 6] [%] | viability at 1 µM [2, 6] [%] | viability at 10 µM [2, 6] [%] | viability at 100 µM [2, 6] [%] | effect of pre-irradiation addition on viable cells and cell death (in words) [2] | effect on UV-B-induced wrinkling (in words) [3] | number of animals of each wrinkle score after the UV-B irradiation [3] | percentage of the viable cell (positive control) ([4]; added at 0.1 μM, called positive control, negative control 64%) [%] | effect of post-irradiation addition on viable cells and cell death (in words) ([4]; post-irradiation addition 0.01 to 100 μM) | percentage of the viable cell ([4]; post-irradiation addition at 0.01 μM, negative control 64%) [%] | percentage of the viable cell ([4]; post-irradiation addition at 0.1 μM, negative control 64%) [%] | percentage of the viable cell ([4]; post-irradiation addition at 1 μM, negative control 64%) [%] | percentage of the viable cell ([4]; post-irradiation addition at 100 μM, negative control 64%) [%] | number of animals of each wrinkle score after the UV-B irradiation ([5]; UV-B total 4.482 J/cm^2, UV(+) control: 2 scored 4, two 5, one 6, one 7) | effect on UV-B-induced wrinkling (in words) ([5]; P=1.8% in Mann-Whitney U test) | viability at 0.001 µM [2, 6] [%] |
| --- | --- | --- | --- | --- | --- | --- | --- | --- | --- | --- | --- | --- | --- | --- | --- | --- | --- | --- | --- |
| CSCC[C@@H](N)C(=O)O [D-methionine] | 1.00 | statistically significant reduction in this skin thickening | 102 | 81 | 97 | 114 | 76 | an increased percentage of the viable cell and a reduced cell death | statistically significant reduction in this wrinkling | six animals scored 5 and two animals scored 6 | 82 | an increased percentage of the viable cell and a reduced cell death | 93 | 84 | 82 | 87 | four animals scored 3, two animals scored 4 and one animal scored 5 | statistically significant reduction in this wrinkling | – |
| O=C(O)[C@H]1CCCN1 [D-proline, reference compound] | – | – | – | 100 | – | – | – | – | – | – | – | – | – | – | – | – | – | – | – |
| CSCC[C@H](N)C(=O)O [L-methionine] | – | – | 72 | 67 | 45 | 73 | 62 | an increased percentage of the viable cell and a reduced cell death | less effective in reducing the UV-B irradiation-induced wrinkling than D-methionine | one animal scored 4, two animals scored 5, two animals scored 6 and two animals scored 7 | – | – | – | – | – | – | – | – | 40 |
